Measurements: paper PMC10244622, “Concerted suppressive effects of carisbamate, an anti-epileptic alkyl-carbamate drug, on voltage-gated Na^+ and hyperpolarization-activated cation currents” (Frontiers in Cellular Neuroscience, 2023)

Legend:
[1] = test system: T1, voltage-gated Na^+ (NaV) channels (INa in GH3 cells); assay: whole-cell patch clamp; assay type: cell-based; conditions: transient (peak) INa(T); 30-ms step from -100 to -10 mV; Ca2+-free Tyrode, 10 mM TEA, 0.5 mM CdCl2; pH 7.4; 20-25 °C; native GH3 cells
T1 construct: gene Scn1a; native whole-cell current in GH3 pituitary cells; hNaV1.7 only docked

[2] = test system: T2, HCN channel (hyperpolarization-activated cation current, Ih, in GH3 cells); assay: whole-cell patch clamp; assay type: cell-based; conditions: Ih at end of 2-s step from -40 to -110 mV; Ca2+-free Tyrode with 1 μM TTX; pH 7.4; 20-25 °C; native GH3 cells
T2 construct: gene Hcn2; native whole-cell current in GH3 pituitary cells; homo- or mixed HCN2+HCN3; PDB 5V4S is only a docking model

NC(=O)OC[C@@H](O)c1ccccc1Cl [CRS, [(2S)-2-(2-chlorophenyl)-2-hydroxyethyl] carbamate]
IC50 [1]: 56.4 µM | IC50 [2]: 38 µM
